These results are taken from patent publication US20190106460A1, “BINDING INHIBITORS OF THE BETA. TRANSDUCIN REPEAT-CONTAINING PROTEIN” (priority 2011, published 2019).

Starred links: 1 amine or outer side, 2 acyl side, 3 side chain; linkers in the order of their positions; H or OH if unused. Non-standard residues stand in square brackets, D forms with d. Residues, ends and D or L forms follow the SMILES beside them. No end group written: not given here. *: point of attachment. Phe(4-NO2) = N[C@@H](Cc1ccc([N+](=O)[O-])cc1)C(=O)O; Benzoyl(2-COOH) = O=C(O)c1ccccc1C(=O)*; Phe(3-F) = N[C@@H](Cc1cccc(F)c1)C(=O)O; Phe(4-F) = N[C@@H](Cc1ccc(F)cc1)C(=O)O; 1Nal = N[C@@H](Cc1cccc2ccccc12)C(=O)O; 3Pal = N[C@@H](Cc1cccnc1)C(=O)O; pS = N[C@@H](COP(=O)(O)O)C(=O)O; X4 = O=S(=O)(c1ccc(Cl)cc1Cl)*; Fumaroyl = O=C(O)/C=C/C(=O)*; Suc = O=C(CCC(=O)[*:2])[*:1]; MeOSuc = COC(=O)CCC(=O)*

This assay concerns the target βTrCP (Homo sapiens, UniProt Q9Y297). The assay can be described thus: Fluorescence polarisation (FP) binding assay with fluorescein-tagged IκB peptide. As to conditions: for IC50: Tables 1, 3, 7, 8, 10 nM fluorescein-tagged IκB peptide, read-out: FP Assay IC50/μM.

Sequence of βTrCP (Q9Y297 whole entry): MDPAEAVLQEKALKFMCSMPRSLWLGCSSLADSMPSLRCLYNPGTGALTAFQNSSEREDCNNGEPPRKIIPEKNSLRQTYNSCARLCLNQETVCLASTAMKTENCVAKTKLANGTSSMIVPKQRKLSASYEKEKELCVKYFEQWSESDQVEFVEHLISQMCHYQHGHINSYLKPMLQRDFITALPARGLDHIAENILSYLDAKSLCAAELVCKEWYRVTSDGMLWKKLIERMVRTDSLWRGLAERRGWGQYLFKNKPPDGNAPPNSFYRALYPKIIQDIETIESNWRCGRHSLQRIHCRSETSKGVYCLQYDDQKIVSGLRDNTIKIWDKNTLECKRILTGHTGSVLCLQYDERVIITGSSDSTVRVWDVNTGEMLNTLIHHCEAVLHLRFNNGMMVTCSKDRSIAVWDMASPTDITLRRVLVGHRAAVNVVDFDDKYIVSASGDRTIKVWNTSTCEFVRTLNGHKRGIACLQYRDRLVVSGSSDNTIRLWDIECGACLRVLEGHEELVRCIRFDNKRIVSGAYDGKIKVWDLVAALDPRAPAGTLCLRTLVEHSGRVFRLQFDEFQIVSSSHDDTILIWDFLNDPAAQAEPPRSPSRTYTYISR
Sequence of βTrCP (P63208 whole entry partner): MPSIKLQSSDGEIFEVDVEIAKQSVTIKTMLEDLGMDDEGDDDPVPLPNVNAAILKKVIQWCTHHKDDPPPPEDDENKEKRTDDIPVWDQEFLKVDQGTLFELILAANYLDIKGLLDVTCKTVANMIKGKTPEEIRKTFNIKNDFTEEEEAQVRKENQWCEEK

As for ADAGIHS-NH2 [ADAGIHS-NH2], the IC50 is above 100 µM.

As for DDASGIHS-NH2 [DDASGIHS-NH2], the IC50 was above 100 µM.

For the compound `NC(=O)[C@H](Cc1cccnc1)NC(=O)[C@H](Cc1cccc(F)c1)NC(=O)CNC(=O)[C@H](CCC(=O)O)NC(=O)CCC(=O)O` [Suc-EG-F(3F)-3Pal-NH2] (Suc-EG[Phe(3-F)][3Pal]-NH2), the IC50 was 70 µM. Regarding `NC(=O)[C@H](CCC(=O)O)NC(=O)[C@H](Cc1c[nH]c2ccccc12)NC(=O)[C@H](Cc1cccc(F)c1)NC(=O)CNC(=O)[C@H](CCC(=O)O)NC(=O)[C@@H](CC(=O)O)NS(=O)(=O)c1ccc(Cl)cc1Cl` [UBP048, 2,4-(Cl)2-PhSO2-dEGF(3F)WE-NH2] (X4-[dD]EG[Phe(3-F)]WE-NH2), the Ki (FP dose-response) was determined as 27 nM. This lies in the double-digit nanomolar range. For `C[C@H](NC(=O)c1ccccc1C(=O)O)C(=O)NCC(=O)N[C@@H](Cc1ccccc1)C(=O)N[C@@H](Cc1ccccc1)C(=O)N[C@@H](CCC(=O)O)C(N)=O` [Phth-AGFFE-NH2] ({Benzoyl(2-COOH)}-AGFFE-NH2), the IC50 was above 100 µM. The same measure, in the same setting: with EAGIFE-NH2 [EAGIFE-NH2] the figure was above 100 µM; with `C[C@H](N)C(=O)NCC(=O)N[C@@H](Cc1cccc(F)c1)C(=O)N[C@@H](Cc1ccc([N+](=O)[O-])cc1)C(=O)N[C@@H](CCC(=O)O)C(N)=O` [AG-F(3F)-F(4NO2)-E-NH2] (H-AG[Phe(3-F)][Phe(4-NO2)]E-NH2), above 100 µM; with `NC(=O)[C@H](CCC(=O)O)NC(=O)[C@H](Cc1cccc2ccccc12)NC(=O)[C@H](Cc1ccc(O)cc1)NC(=O)CNC(=O)[C@@H](N)CCC(=O)O` [EGY-1Nal-E-NH2] (H-EGY[1Nal]E-NH2), above 100 µM.

Regarding `C[C@H](NC(=O)[C@H](CCC(=O)O)NC(=O)CCC(=O)O)C(=O)N[C@@H](Cc1ccc(O)cc1)C(=O)N[C@@H](Cc1ccccc1)C(=O)N[C@@H](CCC(=O)O)C(N)=O` [Suc-EAYFE-NH2], the IC50 stood at 82.1 µM.

Regarding DAGIHS-NH2 [DAGIHS-NH2], the IC50 is above 100 µM. Still for that read-out and setting: to `CC[C@H](C)[C@H](NC(=O)CNC(=O)[C@H](COP(=O)(O)O)NC(=O)[C@H](CC(=O)O)NC(=O)CN)C(=O)N[C@@H](Cc1c[nH]cn1)C(=O)N[C@@H](CO)C(N)=O` [GD-pS-GIHS-NH2] (H-GD[pS]GIHS-NH2) belongs above 100 µM; to `CC[C@H](C)[C@H](NC(=O)CNC(=O)[C@H](C)NC(=O)[C@H](N)CC(=O)O)C(=O)N[C@@H](Cc1ccccc1)C(=O)N[C@@H](CC(=O)O)C(N)=O` [dAGIFD-NH2] (H-[dD]AGIFD-NH2), above 100 µM; to VDAGIHS-NH2 [VDAGIHS-NH2], above 100 µM. With `NC(=O)CC[C@H](N)C(=O)NCC(=O)N[C@@H](Cc1cccc(F)c1)C(=O)N[C@@H](Cc1ccc([N+](=O)[O-])cc1)C(=O)N[C@@H](CCC(=O)O)C(N)=O` [QG-F(3F)-F(4NO2)-E-NH2], the IC50 was above 100 µM. On the same count and under the same terms, with `COC(=O)CCC(=O)N[C@@H](CCC(=O)O)C(=O)NCC(=O)N[C@@H](Cc1cccc(F)c1)C(=O)N[C@@H](Cc1cccc2ccccc12)C(=O)N[C@@H](CCC(=O)O)C(N)=O` [(MeO)Suc-EG-F(3F)-1Nal-E-NH2] (MeOSuc-EG[Phe(3-F)][1Nal]E-NH2) the figure was 1.6 µM; with `CC[C@H](C)[C@H](NC(=O)CNC(=O)[C@H](CCC(=O)O)NC(=O)c1ccccc1C(=O)O)C(=O)N[C@@H](Cc1ccccc1)C(=O)N[C@@H](CCC(=O)O)C(N)=O` [Phth-EGIFE-NH2] ({Benzoyl(2-COOH)}-EGIFE-NH2), above 100 µM. The same measure, in the same setting: to `CC[C@H](C)[C@H](NC(=O)CNC(=O)[C@H](CCC(=O)O)NC(=O)CCC(=O)O)C(=O)N[C@@H](Cc1cccc2ccccc12)C(=O)N[C@@H](CCC(=O)O)C(N)=O` [Suc-EGI-1Nal-E-NH2] (Suc-EGI[1Nal]E-NH2) belongs 15.1 µM. With GDAGIHS-NH2 [GDAGIHS-NH2], the IC50 is above 100 µM. `C[C@H](NC(=O)CCC(=O)O)C(=O)NCC(=O)N[C@@H](Cc1cccc(F)c1)C(=O)N[C@@H](Cc1ccc([N+](=O)[O-])cc1)C(=O)N[C@@H](CCC(=O)O)C(N)=O` [Suc-AG-F(3F)-F(4NO2)-E-NH2] (Suc-AG[Phe(3-F)][Phe(4-NO2)]E-NH2): the IC50 was 8.01 µM. For `NC(=O)[C@H](CCC(=O)O)NC(=O)[C@H](Cc1ccc([N+](=O)[O-])cc1)NC(=O)[C@H](Cc1cccc(F)c1)NC(=O)CNC(=O)[C@H](CCC(=O)O)NC(=O)/C=C/C(=O)O` [Fum-EG-F(3F)-F(4NO2)-E-NH2] (Fumaroyl-EG[Phe(3-F)][Phe(4-NO2)]E-NH2), the IC50 turned out to be 60.4 µM. On to `CC[C@H](C)[C@H](NC(=O)CNC(=O)[C@H](COP(=O)(O)O)NC(=O)[C@H](CC(=O)O)NC(=O)[C@@H](N)C(C)C)C(=O)N[C@@H](Cc1c[nH]cn1)C(=O)N[C@@H](CO)C(N)=O` [VD-pS-GIHS-NH2] (H-VD[pS]GIHS-NH2), for which the IC50 is above 100 µM. The same measure, in the same setting: to `NC(=O)[C@H](Cc1ccc(F)cc1)NC(=O)[C@H](Cc1ccc(O)cc1)NC(=O)CNC(=O)[C@H](CCC(=O)O)NC(=O)CCC(=O)O` [Suc-EGY-F(4F)-NH2] (Suc-EGY[Phe(4-F)]-NH2) belongs 71 µM; to `C[C@H](NC(=O)CCC(=O)O)C(=O)NCC(=O)N[C@@H](Cc1ccc(O)cc1)C(=O)N[C@@H](Cc1ccccc1)C(=O)N[C@@H](CCC(=O)O)C(N)=O` [Suc-AGYFE-NH2], 22.2 µM; to `NC(=O)[C@H](Cc1ccc([N+](=O)[O-])cc1)NC(=O)[C@H](Cc1cccc(F)c1)NC(=O)CNC(=O)[C@H](CCC(=O)O)NC(=O)CCC(=O)O` [Suc-EG-F(3F)-F(4NO2)-NH2] (Suc-EG[Phe(3-F)][Phe(4-NO2)]-NH2), above 100 µM. On the same count and under the same terms, to `NC(=O)[C@H](CCC(=O)O)NC(=O)[C@H](Cc1cccc2ccccc12)NC(=O)[C@H](Cc1cccnc1)NC(=O)CNC(=O)[C@H](CCC(=O)O)NC(=O)CCC(=O)O` [Suc-EG-3Pal-1Nal-E-NH2] (Suc-EG[3Pal][1Nal]E-NH2) belongs 3.63 µM; to `C[C@H](NC(=O)[C@H](CCC(=O)O)NC(=O)CCC(=O)O)C(=O)N[C@@H](Cc1cccc(F)c1)C(=O)N[C@@H](Cc1ccc([N+](=O)[O-])cc1)C(=O)N[C@@H](CCC(=O)O)C(N)=O` [Suc-EA-F(3F)-F(4NO2)-E-NH2], 27.5 µM. On the same count and under the same terms, with `CC[C@H](C)[C@H](NC(=O)CNC(=O)[C@H](CC(N)=O)NC(=O)[C@H](N)CC(=O)O)C(=O)N[C@@H](Cc1ccccc1)C(=O)N[C@@H](CCCNC(=N)N)C(N)=O` [dNGIFR-NH2] (H-[dD]NGIFR-NH2) the figure was above 100 µM. On to `CC[C@H](C)[C@H](NC(=O)CNC(=O)[C@H](C)NC(=O)CCC(=O)O)C(=O)N[C@@H](Cc1ccccc1)C(=O)N[C@@H](CCC(=O)O)C(N)=O` [Suc-AGIFE-NH2] (Suc-AGIFE-NH2), for which the IC50 is above 100 µM.

As for `NC(=O)[C@H](Cc1cccc(F)c1)NC(=O)[C@H](Cc1ccccc1)NC(=O)CNC(=O)[C@H](CCC(=O)O)NC(=O)CCC(=O)O` [Suc-EGF-F(3F)-NH2] (Suc-EGF[Phe(3-F)]-NH2), the IC50 was above 100 µM.

For the compound `NC(=O)[C@H](CCC(=O)O)NC(=O)[C@H](Cc1ccc([N+](=O)[O-])cc1)NC(=O)[C@H](Cc1ccc(O)cc1)NC(=O)CNC(=O)[C@@H](N)CCC(=O)O` [EGY-F(4NO2)-E-NH2] (H-EGY[Phe(4-NO2)]E-NH2), the IC50 was above 100 µM.

Consider `NC(=O)CC[C@H](NC(=O)CCC(=O)O)C(=O)NCC(=O)N[C@@H](Cc1ccccc1)C(=O)N[C@@H](Cc1ccccc1)C(=O)N[C@@H](CCC(=O)O)C(N)=O` [Suc-QGFFE-NH2], for which the IC50 amounted to 10 µM.

A word on the Ki: it is the equilibrium dissociation constant of an inhibitor or competing ligand from its target.
